Test results taken from patent publication US7521570B2, “Medicinal compositions containing 6-hydroxybenzbromarone or salts thereof” (Torli Pharmaceutical Co., Ltd., priority 2004, dated 2009).
Like-named read-outs stand apart in the source and are kept apart here.

Tests used:
[1] = target: T1, xanthine oxidase derived from bovine milk (Bos taurus, UniProt P80457); assay: Xanthine oxidase inhibitory activity (absorbance 292 nm, xanthine substrate); type: biochemical; settings: for IC50: 100 μM xanthine, 37° C., pH 7.4, read-out: IC50 level, xanthine oxidase
T1 construct: xanthine oxidase derived from bovine milk; from tissue; host or cells: bovine milk
Description: Subsequently, xanthine oxidase inhibitory activity of 6-hydroxybenzbromarone was investigated. Activity of xanthine oxidase derived from bovine milk was checked as follows: Using 100 μM of xanthine as the substrate, and using a system for measuring chronologically the absorbance (292 nm) of […] generated at 37° C. in 1/15 M phosphate buffer solution (pH 7.4) in which 0.1 M phosphate buffer solution was diluted by half volume of water, inhibitory activity of 6-hydroxybenzbromarone or of oxypurinol that is a metabolic product of allopurinol was measured to analyze IC50.
Activity of xanthine oxidase derived from bovine milk was analyzed as follows.

[2] = target: T2, human OAT3 (human organic anion transporter 3) (Homo sapiens, UniProt Q8TCC7); assay: Inhibition of 3H-estrone sulfate uptake by OAT3 in S2 cells; type: cell-based; settings: for Ki: OAT3, 3H-estrone sulfate uptake
T2 construct: expressed in transfected cells; host or cells: S2 cells expressing OAT3
T2 sequence (Q8TCC7 1-542): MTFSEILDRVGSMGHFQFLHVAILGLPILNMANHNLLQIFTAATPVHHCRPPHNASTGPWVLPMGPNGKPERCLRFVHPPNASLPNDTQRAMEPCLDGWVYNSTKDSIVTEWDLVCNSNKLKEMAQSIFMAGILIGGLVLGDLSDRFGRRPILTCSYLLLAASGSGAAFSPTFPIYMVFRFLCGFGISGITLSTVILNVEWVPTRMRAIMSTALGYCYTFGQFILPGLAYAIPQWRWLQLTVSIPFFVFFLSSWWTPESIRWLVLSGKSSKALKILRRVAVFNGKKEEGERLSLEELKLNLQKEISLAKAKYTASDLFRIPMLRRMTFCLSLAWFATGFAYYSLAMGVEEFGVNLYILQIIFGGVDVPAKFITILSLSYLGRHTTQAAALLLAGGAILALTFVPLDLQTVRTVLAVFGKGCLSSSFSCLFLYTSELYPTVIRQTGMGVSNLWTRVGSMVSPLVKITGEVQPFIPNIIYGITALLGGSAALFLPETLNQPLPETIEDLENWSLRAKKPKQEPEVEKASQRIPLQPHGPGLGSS
Description: OAT3 is an organic anion transporter which is present at basal-lateral (vascular side) membrane of the proximal renal tubule and takes organic anion such as uric acid into cells, and estrone sulfate is known as the typical substrate of this.
The horizontal axis of FIG. 8 represents 1/S (L/mmol) and the vertical axis represents 1/V (mg protein/μM/min), black square (▪) denotes 6-hydroxybenzbromarone (0.3 μM) case and white square (□) denotes control.

[3] = target: T3, human OAT4 (human organic anion transporter 4) (Homo sapiens, UniProt Q9NSA0); assay: Inhibition of 3H-estrone sulfate uptake by OAT4 in S2 cells; type: cell-based; settings: S2 cells expressing OAT4
T3 sequence (Q9NSA0 1-550): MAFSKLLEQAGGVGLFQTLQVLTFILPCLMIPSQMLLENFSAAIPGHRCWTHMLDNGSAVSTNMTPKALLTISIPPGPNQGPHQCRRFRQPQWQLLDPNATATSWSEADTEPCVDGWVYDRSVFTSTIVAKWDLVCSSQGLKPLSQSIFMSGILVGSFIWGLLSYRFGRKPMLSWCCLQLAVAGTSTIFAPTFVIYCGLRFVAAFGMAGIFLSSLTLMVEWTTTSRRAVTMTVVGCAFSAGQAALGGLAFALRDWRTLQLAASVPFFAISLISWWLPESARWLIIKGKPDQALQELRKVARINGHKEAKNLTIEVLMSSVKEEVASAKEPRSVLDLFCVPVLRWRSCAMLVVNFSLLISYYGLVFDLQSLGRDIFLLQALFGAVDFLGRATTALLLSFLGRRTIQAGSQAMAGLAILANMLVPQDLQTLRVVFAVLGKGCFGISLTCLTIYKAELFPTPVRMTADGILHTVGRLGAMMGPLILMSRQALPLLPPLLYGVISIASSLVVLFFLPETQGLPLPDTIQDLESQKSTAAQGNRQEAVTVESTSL
Excerpt: OAT4 is an organic anion transporter which is present at luminal side membrane of the proximal renal tubule and takes organic anion such as uric acid into cells, and estrone sulfate is known as the typical substrate of this. […] Results are shown in FIG. 6 in the form of relative value while the amount of uptake of ^3H-estrone sulfate in a case where nothing is present (control) is considered to be 100%.

[4] = Pharmacokinetic test of single dose in rats; type: in vivo; settings: single dose of 100 mg/kg; for Cmax / AUC(0-t): rat, in vivo, po; for AUC(0-t): read-out: AUC0-24hr
[5] = target: T4, URAT1 (Homo sapiens, UniProt Q96S37); assay: Inhibition of [14C] uric acid uptake by URAT1 in MDCK-URAT1 cells; type: cell-based; settings: for IC50: MDCK-URAT1 cells, 100 μM [14C] uric acid
T4 construct: expressed in transfected cells
T4 sequence (Q96S37 1-553): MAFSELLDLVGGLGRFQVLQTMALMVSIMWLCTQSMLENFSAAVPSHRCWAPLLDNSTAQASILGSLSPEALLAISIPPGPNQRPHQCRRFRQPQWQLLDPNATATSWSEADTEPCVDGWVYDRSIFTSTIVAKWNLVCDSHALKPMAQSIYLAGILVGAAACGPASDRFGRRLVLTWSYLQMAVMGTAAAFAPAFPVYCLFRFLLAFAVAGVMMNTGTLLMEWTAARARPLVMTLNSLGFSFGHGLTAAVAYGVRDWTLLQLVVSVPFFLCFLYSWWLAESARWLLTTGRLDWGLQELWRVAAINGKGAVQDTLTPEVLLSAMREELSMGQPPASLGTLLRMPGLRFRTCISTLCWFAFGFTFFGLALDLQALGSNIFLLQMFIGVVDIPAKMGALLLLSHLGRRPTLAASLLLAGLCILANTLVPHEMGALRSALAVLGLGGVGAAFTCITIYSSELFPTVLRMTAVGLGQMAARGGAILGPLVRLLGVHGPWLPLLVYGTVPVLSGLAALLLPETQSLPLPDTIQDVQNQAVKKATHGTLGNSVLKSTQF
Description: cDNA of URAT1 was introduced into MDCK cells and stably expressing cells (MDCK-URAT1) were created. […] Experiments are carried out each three times and level of IC50 was analyzed by profit.
cDNA of URAT1 which was integrated into mammal expression vector pcDNA3.1, or pcDNA3.1 was gene transfected to MDCK cells to create stably expressing cells (MDCK-URAT1) and mock cells.
This MDCK-URAT1 was cultured in the minimal essential medium containing 5% fetal bovine serum and 400 μg/mL geneticin, cells were placed in 24-well dish (as many as 10^5 cells per one well) and cultured for 2 days. After that, it was washed with Dulbecco's modified PBS and subjected to pre-incubation in the Dulbecco's modified PBS solution for 10 min.
After that, it was washed with Dulbecco's modified PBS solution three times and cells were collected by 0.1N NaOH. Scintillation cocktail was then added to count dpm of [^14C] uric acid being taken in cells by liquid scintillation counter. Values of IC50 were analyzed by profit.

[6] = Clinical pharmacokinetic test, single dose of benzbromarone, plasma and urine by LC/MS/MS; type: in vivo, human; settings: for detection in the urine: till 72 hours; for concentration at 72 h: male, human, po, 100 mg as benzbromarone
Description: Next, clinical pharmacokinetic test was carried out for a case where single dose of benzbromarone was given to healthy male adult subjects.
Results of plasma concentration of 6-hydroxybenzbromarone are shown in FIG. 3 and results of urine concentration of the same are shown in FIG. 4, respectively. The vertical axis of FIG. 3 represents plasma level (ng/mL) and the horizontal axis represents time elapsed (hour). […] The vertical axis of FIG. 4 represents concentration in the urine (ng/mL) and the horizontal axis represents time elapsed (hour).

[7] = healthy male adults, single oral 100 mg benzbromarone

T1 sequence (P80457 whole entry): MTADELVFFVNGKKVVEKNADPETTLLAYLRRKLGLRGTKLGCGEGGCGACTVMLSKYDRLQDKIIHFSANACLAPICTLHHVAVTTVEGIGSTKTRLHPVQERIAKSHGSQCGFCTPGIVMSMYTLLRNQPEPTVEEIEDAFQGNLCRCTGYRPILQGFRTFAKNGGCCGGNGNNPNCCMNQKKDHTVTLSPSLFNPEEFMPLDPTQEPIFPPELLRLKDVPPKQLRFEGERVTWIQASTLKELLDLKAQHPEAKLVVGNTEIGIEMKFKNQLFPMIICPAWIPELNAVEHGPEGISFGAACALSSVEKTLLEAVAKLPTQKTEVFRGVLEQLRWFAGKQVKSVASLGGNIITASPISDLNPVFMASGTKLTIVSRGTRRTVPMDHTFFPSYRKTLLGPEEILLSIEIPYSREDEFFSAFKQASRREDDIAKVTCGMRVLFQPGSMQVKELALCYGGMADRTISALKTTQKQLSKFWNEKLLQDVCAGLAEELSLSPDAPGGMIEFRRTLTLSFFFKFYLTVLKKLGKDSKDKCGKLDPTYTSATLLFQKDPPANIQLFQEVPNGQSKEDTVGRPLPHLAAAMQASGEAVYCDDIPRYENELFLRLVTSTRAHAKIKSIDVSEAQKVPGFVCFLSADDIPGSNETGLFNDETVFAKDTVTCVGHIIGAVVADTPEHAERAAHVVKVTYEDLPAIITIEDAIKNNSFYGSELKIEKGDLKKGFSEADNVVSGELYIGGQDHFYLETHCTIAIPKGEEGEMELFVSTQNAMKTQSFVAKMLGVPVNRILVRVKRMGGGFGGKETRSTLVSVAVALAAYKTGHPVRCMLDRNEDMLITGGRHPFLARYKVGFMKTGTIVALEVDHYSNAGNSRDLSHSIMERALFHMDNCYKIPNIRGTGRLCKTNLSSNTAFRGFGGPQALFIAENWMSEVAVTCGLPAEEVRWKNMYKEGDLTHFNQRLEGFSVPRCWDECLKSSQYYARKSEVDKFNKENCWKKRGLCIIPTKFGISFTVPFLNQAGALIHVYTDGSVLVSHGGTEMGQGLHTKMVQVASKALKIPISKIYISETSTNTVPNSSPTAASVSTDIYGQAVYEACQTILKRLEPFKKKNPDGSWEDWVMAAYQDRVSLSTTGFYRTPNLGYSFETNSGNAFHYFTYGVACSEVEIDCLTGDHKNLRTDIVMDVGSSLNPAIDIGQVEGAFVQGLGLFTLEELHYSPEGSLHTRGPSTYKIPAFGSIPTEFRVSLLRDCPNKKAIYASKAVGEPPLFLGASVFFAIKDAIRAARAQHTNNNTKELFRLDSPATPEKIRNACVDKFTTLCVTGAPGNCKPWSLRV

Which results are given for `CCc1oc2cc(O)ccc2c1C(=O)c1cc(Br)c(O)c(Br)c1` [6-hydroxybenzbromarone, 2-ethyl-6-hydroxy-3-(3′,5′-dibromo-4′-hydroxy-benzoyl)-benzofuran]?
IC50 [1]: 68000 nM; inhibitory activity of xanthine oxidase relative to oxypurinol ([1]; fraction of that of oxypurinol): approximately ⅕; inhibitory style at OAT3 ([2]; 3H-estrone sulfate uptake, 0.3 μM, FIG. 8): mixed type of competitive inhibition and noncompetitive inhibition; Ki ([2]; FIG. 8, read-out: Ki-value (competitive inhibition)): 1000 nM; Ki ([2]; FIG. 8, read-out: Ki-value (noncompetitive inhibition)): 700 nM; IC50 ([2]; S2 cells expressing OAT3, 3H-estrone sulfate (50 nmol/L)): 300 nM; IC50 [3]: 3200 nM; Cmax [4]: 34600 ng/mL; AUC(0-t) [4]: 291 µg·h/mL; absorption from the digestive tract into bloodstream [4]: absorbed favorably; IC50 ([5]; 37° C. 2 min, three experiments, read-out: level of IC50, uric acid uptake by URAT1, after three times experiments): 200 ± 60 nM; IC50 ([5]; single experiment shown in figure, read-out: level of IC50, uric acid uptake by URAT1 (FIG. 1 / FIG. 2)): 130 nM; intensity of uric acid uptake inhibition relative to benzbromarone ([5]; fraction of that of benzbromarone): approximately ⅙; AUC in plasma relative to benzbromarone [6, 7]: twice or higher level than that of benzbromarone; detection in the urine [6, 7]: high level; concentration at 72 h ([6]; plasma, read-out: plasma concentration 72 hours after administration): ~110 ng/mL; concentration at 72 h ([6]; urine, read-out: urine concentration 72 hours after administration): ~170 ng/mL

Which results are given for `CCc1oc2ccccc2c1C(=O)c1cc(Br)c(O)c(Br)c1` [benzbromarone]?
IC50 [2]: 700 nM; IC50 [3]: 5400 nM; Cmax [4]: 90200 ng/mL; AUC(0-t) [4]: 887 µg·h/mL; time after administration at which eliminated from plasma [6, 7]: 48 h; detection in the urine [6, 7]: detected little in the urine

Which IC50 [1] does the source give for `O=c1[nH]c(=O)c2c[nH]nc2[nH]1` [oxypurinol, reference compound] here?
The IC50 was 13000 nM.
